Measured values as given in ChEMBL document CHEMBL1201862, “PubChem BioAssay data set” (2004).
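Where inhibition never reached the appropriate level, the endpoint shown equals the highest concentration tested. Otherwise, values were interpolated linearly from a five-concentration, 48-hour dose response in 96-well plates. GI50 is the concentration that inhibits growth by half.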 The source made the active and inactive calls. Rule as the data show it: active = GI50 up to about 1.1 µM and inactive = higher.

Experiments:
Assay in all cases: growth of human tumour cells (NCI), 48 h
HOP-62 = system: HOP-62
SW-620 = system: SW-620
A549 = system: A549
HCC 2998 = system: HCC 2998
SK-MEL-2 = system: SK-MEL-2
MDA-MB-435 = system: MDA-MB-435
HT-29 = system: HT-29
OVCAR-5 = system: OVCAR-5
NCI-H226 = system: NCI-H226
NCI-H460 = system: NCI-H460
BT-549 = system: BT-549
RXF 393 = system: RXF 393
SNB-19 = system: SNB-19
COLO 205 = system: COLO 205
MDA-MB-231 = system: MDA-MB-231
SK-MEL-5 = system: SK-MEL-5
EKVX = system: EKVX
U-251 = system: U-251
PC-3 = system: PC-3
UACC-257 = system: UACC-257

Q: With `CCN1C(=O)C(=C/C=C/c2ccc(N(CC)CC)cc2)C(=O)N(CC)C1=S` as the compound, how does the GI50 (HOP-62) read?
A: Its GI50 is 21.7 µM (inactive).

Q: What about the GI50 (SW-620) of the same compound?
A: The GI50 was > 100 µM (inactive).

Q: And the GI50 (A549)?
A: The GI50 was > 100 µM (inactive).

Q: And the GI50 (HCC 2998)?
A: Its GI50 is > 100 µM (inactive).

Q: What about the GI50 (SK-MEL-2) of the same compound?
A: Its GI50 is 68.5 µM (inactive).

Q: What about the GI50 (MDA-MB-435) of the same compound?
A: The GI50 was 86.9 µM (inactive).

Q: And the GI50 (HT-29)?
A: Its GI50 is > 100 µM (inactive).

Q: What about the GI50 (OVCAR-5) of the same compound?
A: Its GI50 is > 100 µM (inactive).

Q: And the GI50 (NCI-H226)?
A: Its GI50 is 93.3 µM (inactive).

Q: What about the GI50 (NCI-H460) of the same compound?
A: Its GI50 is > 100 µM (inactive).

Q: And the GI50 (BT-549)?
A: Its GI50 is 40.7 µM (inactive).

Q: What about the GI50 (RXF 393) of the same compound?
A: The GI50 was > 100 µM (inactive).

Q: And the GI50 (SNB-19)?
A: Its GI50 is > 100 µM (inactive).

Q: What about the GI50 (COLO 205) of the same compound?
A: The GI50 was > 100 µM (inactive).

Q: And the GI50 (MDA-MB-231)?
A: The GI50 was > 100 µM (inactive).

Q: And the GI50 (SK-MEL-5)?
A: Its GI50 is > 100 µM (inactive).

Q: What about the GI50 (EKVX) of the same compound?
A: Its GI50 is > 100 µM (inactive).

Q: What about the GI50 (U-251) of the same compound?
A: Its GI50 is > 100 µM (inactive).

Q: What about the GI50 (PC-3) of the same compound?
A: Its GI50 is 72.4 µM (inactive).

Q: And the GI50 (UACC-257)?
A: Its GI50 is > 100 µM (inactive).

Q: Which results are given for `COC(=O)C1=C(OC(=O)/C(=C/c2ccc(Cl)cc2)c2ccccc2)C(C(=O)OC)[C@@]2(O)[C@@H](C(=O)OC)[C@H](C)C[C@@H]1[C@@H]2C(=O)OC` (stereo not given in full)?
A: GI50 (HOP-62): > 100 µM (inactive); GI50 (SW-620): > 100 µM (inactive); GI50 (A549): 7.85 µM (inactive); GI50 (HCC 2998): > 100 µM (inactive); GI50 (SK-MEL-2): > 100 µM (inactive); GI50 (MDA-MB-435): > 100 µM (inactive); GI50 (HT-29): > 100 µM (inactive); GI50 (OVCAR-5): > 100 µM (inactive); GI50 (NCI-H226): > 100 µM (inactive); GI50 (NCI-H460): 61.4 µM (inactive); GI50 (BT-549): 22.2 µM (inactive); GI50 (RXF 393): 3.01 µM (inactive); GI50 (SNB-19): 77.8 µM (inactive); GI50 (COLO 205): > 100 µM (inactive); GI50 (MDA-MB-231): > 100 µM (inactive); GI50 (SK-MEL-5): > 100 µM (inactive); GI50 (EKVX): 27.2 µM (inactive); GI50 (U-251): 26.7 µM (inactive); GI50 (PC-3): 37.5 µM (inactive); GI50 (UACC-257): > 100 µM (inactive)

Q: `Nc1ccc(-c2nc3ccccc3s2)cc1I` was tested. Which GI50 (HOP-62) did it give?
A: The GI50 was 37.3 µM (inactive).

Q: And the GI50 (SW-620)?
A: Its GI50 is > 92.7 µM (inactive).

Q: What about the GI50 (A549) of the same compound?
A: The GI50 was > 78 µM (inactive).

Q: And the GI50 (HCC 2998)?
A: The GI50 was 5.06 µM (inactive).

Q: And the GI50 (SK-MEL-2)?
A: Its GI50 is > 100 µM (inactive).

Q: And the GI50 (MDA-MB-435)?
A: The GI50 was 97.9 µM (inactive).

Q: What about the GI50 (HT-29) of the same compound?
A: Its GI50 is 66.2 µM (inactive).

Q: And the GI50 (OVCAR-5)?
A: Its GI50 is 0.0817 µM (active).

Q: And the GI50 (NCI-H226)?
A: The GI50 was 0.221 µM (active).

Q: What about the GI50 (NCI-H460) of the same compound?
A: The GI50 was 38.5 µM (inactive).

Q: And the GI50 (BT-549)?
A: Its GI50 is > 78 µM (inactive).

Q: And the GI50 (RXF 393)?
A: The GI50 was 29.7 µM (inactive).

Q: And the GI50 (SNB-19)?
A: The GI50 was 54.2 µM (inactive).

Q: What about the GI50 (COLO 205) of the same compound?
A: Its GI50 is 36 µM (inactive).

Q: What about the GI50 (MDA-MB-231) of the same compound?
A: Its GI50 is > 69.7 µM (inactive).

Q: What about the GI50 (SK-MEL-5) of the same compound?
A: Its GI50 is 58.7 µM (inactive).

Q: And the GI50 (EKVX)?
A: The GI50 was 14.9 µM (inactive).

Q: What about the GI50 (U-251) of the same compound?
A: Its GI50 is 34.4 µM (inactive).

Q: And the GI50 (PC-3)?
A: Its GI50 is 41.5 µM (inactive).

Q: And the GI50 (UACC-257)?
A: Its GI50 is > 100 µM (inactive).
